Data on three compounds can be found in patent publication US10328075B2, “Method of treatment and compounds for use therein” (Baker Heart and Diabetes Institute, priority 2015, dated 2019).

The test system of this assay is myocardial I-R injury in C57BL/6 mice. The experiment in a line: Myocardial I-R in mice: cardiac inflammation after 48 h reperfusion. The note with it: for Effect on LV injury score / cell infiltration (H&E) / Effect on LV macrophage (CD68+) signal / Reduction of LV neutrophil content (Ly-6B.2) / Effect on LV neutrophil (Ly-6B.2) signal (in words): 60 min ischaemia, 48 h reperfusion. The class given is in vivo, mouse. On the procedure:
Male C57BL/6 mice were breed and housed in the AMREP Animal Centre and maintained under a 12 h light/dark cycle. After anaesthesia (i.p., ketamine 80 mg/kg, xylazine 20 mg/kg and atropine 1.2 mg/kg), mice were randomly assigned to 24 h, 48 h and 7 days reperfusion groups and underwent reversible left arterial descending (LAD) ligation as described (Gao XM, 2011; JMCC, 50; Gao XM, 2000, JMCC). Following sedation, mice were intubated and ventilated (Harvard apparatus, MA, USA) with room air mixed with oxygen (tidal volume 0.25 mL, 150 breath/min), and placed on a heating pad. A left thoractomy will be made via the ˜third intercostal space, where the beating heart was located.
The LAD was reversibly ligated using 7-0 silk suture with a slipknot enclosing two releasing rings. Regional ischaemia was confirmed by pale colour of the ligated area. Air was then evacuated from the chest, the cavity was closed and normal respiration was restored. After 40-60 min of ischaemia, blood flow through the left coronary artery was re-established by releasing the slipknot. Sham-operated mice underwent identical surgical procedures except the coronary arteries were not ligated. Three cohorts of mice were scheduled. Cohort 1 was subjected to 40 min ischaemic-24 h reperfusion for the assessment of cardiac necrosis. Cohort 2 was subjected to 60 min occlusion with 48 h reperfusion for the quantification of cardiac and systemic inflammation. The last cohort was subjected to 7 d reperfusion and early cardiac fibrosis was assessed.
Treatment with study drugs: Animals were randomly assigned to different groups and all treatments were administrated 5 min prior to reperfusion of the LAD. The peptide Ac2-26 (1 mg kg^−1) (Chemieliva, Chongqing, China) and its vehicle (10% dimethyl sulfoxide (DMSO) in saline) were intravenously (i.v.) injected via the tail vein. […] Mice then received drug or vehicle injections daily until the experimental endpoint. The two different vehicles groups reflect different study drug solubility and administration routes.
Assessment of cardiac inflammation: LV tissue embedded in OCT compound following 60 min ischaemia and 48 h reperfusion were sectioned at 6 μm for immunofluorescent analysis. Sections were pre-incubated with 4% paraformaidehyde for 20 min and 10% normal goat serum for a further 30 min. Sections were then incubated at room temperature (RT) with either CD68+ primary antibody or Ly-6B.2 primary antibody (1:200, ABD Serotec, Raleigh, USA) for 1 h, followed 30 min incubation with the Alexa Fluor 546 secondary antibody (1:200, Invitrogen, Carlsbad, USA), to detect cardiac macrophage and neutrophil infiltration, respectively. Finally, sections were incubated with 0.001% Hoechst 33342 (Invitrogen, Melbourne, Australia) for 30 min, to elicit nuclear staining. Single images were photographed using a Nikon A1R confocal microscope (Nikon Instruments Inc., NY, USA) under 20× magnification, and 9×9 single images were then automatically stitched together using NIS-Elements AR software (version 4.10 for Windows, Nikon Instruments Inc., NY, USA) to form each whole LV section. The images for infarct area were captured under 40× magnification, and the stitched images were then analysed using Fiji software (version 1.48c for Max OS X, National Institutes of Health, USA). The threshold was set for each image, to enable optimal sensing of red fluorescence intensity above threshold, and the software then automatically quantified these red fluorescent signals.
Assessment of cardiac histology and fibrosis: LV hearts fixed in NBF after 40 min ischaema and 7 d reperfusion were embedded in paraffin by the Alfred Pathology Service (Melbourne, Australia) and sectioned at 4 μm with a Leica 2135 microtome (Leica Microsystems, Wetzlar, Germany). Sections were stained with haematoxylin and eosin (H&E) for assessment of myocardial morphology, or picrosirius red (0.1%, Fluka, Bucks, Switzerland; pH2) for cardiac collagen deposition. […]

No end group written: not given here.

On to `COc1cccc(Cc2cc(C)nn(C(C)C(=O)Nc3ccc(Br)cc3)c2=O)c1` (stereo not drawn) [BIDI-001, N-(4-bromophenyl)-2-[5-(3-methoxybenzyl)-3-methyl-6-oxo-6H-pyridazin-1-yl]-propionamide], for which the “Effect on LV injury score / cell infiltration (H&E)” value is given as “not”, the “Effect on LV macrophage (CD68+) signal” value is recorded as “tended to be reduced” and the “Reduction of LV neutrophil content (Ly-6B.2)” value is listed as approximately 50%. Moreover, under “50 mg/kg i.p.”, the “Effect on cardiac inflammation 48 h post I-R” value is recorded as “reduces cardiac inflammation” and the “Effect on LV neutrophil (Ly-6B.2) signal (in words)” value is “significantly attenuated the Ly-6B.2 neutrophil signal by almost half”. Further, the “Cardioprotection: Inflammation” value (Table 9) was “↓↓”.

Consider `CC(C)C1C(NC(=O)Nc2ccc(Cl)cc2)C(=O)N(c2ccccc2)N1C` (stereo not drawn) [BIDI-002], for which the “Effect on LV injury score / cell infiltration (H&E)” value is on record as “significantly attenuated” and the “Effect on LV macrophage (CD68+) signal” value is on record as “tended to be reduced”. The “Effect on LV neutrophil (Ly-6B.2) signal (in words)” value (50 mg/kg i.p., listed as Cmpd43, 50 mg/kg) is listed as “absent”.

Consider “Ac2-26: Annexin-A1 N-terminal peptide, peptide ANX-A1 mimetic (Ac-AMVSEFLKQAWFIENEEQEYVQTVK; UniProt P04083 2-26, looked up, fragment)”, for which the “Effect on LV injury score / cell infiltration (H&E)” value is reported as “significantly inhibited”, the “Effect on LV macrophage (CD68+) signal” value is “non-significant trend” and the “Reduction of LV neutrophil content (Ly-6B.2)” value was “approximately 35%”.
